From patent US5034530A, “Imidazoquinoxaline compounds and their preparation and use” (Novo Nordisk A/S, priority 1988, dated 1991)

Tested on: benzodiazepine receptors
Assay: in vivo displacement of 3H-flunitrazepam specific binding from brain benzodiazepine receptors in mice
Settings: dose reducing specific 3H-flunitrazepam binding in living mouse brain to 50% of control; test substance i.p. 15 min before i.v. 3H-FNM; female mice; forebrain
Description: The pharmaceutical properties of the compounds of the invention can be illustrated by determining their capability for displacing radioactive labelled flunitrazepam from benzodiazepine receptors.
The displacement activity of the compounds of the invention may be found by determining the ED50 value. The ED50 value represents the dose (mg/kg) of a test substance which causes the specific binding of flunitrazepam to benzodiazepine receptors in a living brain to be reduced to 50% of the control value.
Such an in vivo test is carried out as follows:
Principle. Twenty minutes after a dose of ^3 H-flunitrazepam (^3 H-FNM) (200 μCi/kg, i.v.) the amount of specific ^3 H-FNM binding to brain benzodiazepine receptors has reached its maximal value.
Test procedure. Suspensions of test substances (2 mg/ml) are prepared in 5% Duphasol-X (TM Duphar, castor oil-ethylene oxide derivative for emulsifying and solubilizing oil and other water-insoluble substances) by sonification for 10 min using a Branson B15 microtip ultrasonifier (setting 7). Groups of three mice (female, NMR, 18-22 grams) are injected with the test substance at 100 mg/kg intraperitoneally. Fifteen minutes after test substance administration the mice are challenged with 4 μCi intravenously of ^3 H-FNM (70-90 Ci/mole) in 200 μl physiological saline. Twenty minutes after ^3 H-FNM administration mice are sacrificed by decapitation, the forebrains rapidly excised (within 30 sec) and homogenized in 12 ml of icecold 25 mM KH2 PO4, pH 7.1, using an Ultra-Turrax homogenizer fitted with an N 10 shaft. […] The amounts of radioactivity on the filters are determined by conventional scintillation counting. […]
Results. The ED50 value is determined from dose response curves. If only one dose of test substance is administered the ED50 value is calculated as follows, provided that the inhibition of specific binding is within the range of 25-75%: [formula] where Co is specific binding in controls and Cx is specific binding in mice treated with test substance.

## Cc1nc2ccccc2n2cnc(-c3noc(C4CC4)n3)c12 [Compound 7, 3-(5-Cyclopropyl-1,2,4-oxadiazol-3-yl)-4-methyl-imidazo[1,5-a]quinoxaline]
  ED50: 1.3 mg/kg

## Cc1nc(-c2ncn3c2c(C)nc2ccccc23)no1 [Compound 8, 4-Methyl-3-(5-methyl-1,2,4-oxadiazol-3-yl)-imidazo[1,5-a]quinoxaline]
  ED50: 1.8 mg/kg

## Cc1nc2ccccc2n2cnc(-c3nc(C4CC4)no3)c12 [Compound 10, 3-(3-Cyclopropyl-1,2,4-oxadiazol-5-yl)-4-methyl-imidazo[1,5-a]quinoxaline]
  ED50: 3.5 mg/kg
